{"source": "patent US12630523B2", "about": "“Isoquinoline derivatives for use as antiviral and antitumour agents” (priority 2021, dated 2026)", "key": {"[1]": {"system": "CaSki (ATCC CRM-CRL-1550)", "assay": "Monolayer assay using Sulphorhodamine B (SRB) staining, CaSki", "type": "cell-based", "details": "Homo sapiens, Ca-Ski, read-out: EC50 mean [nM]", "description": "Various cell culture cells grown as monolayers are harvested from exponential growing cultures after treatment with various OC compounds at different concentrations. For this depending on the cell line, 10.000 to 30.000 cells were plated in 96-well flat-bottom microtiter plates. After a 24 h recovery period to allow cells to resume exponential growth, supernatants are discarded and 100 μl of culture medium (eight control wells/plate) or culture medium with the test compound are added by a liquid handling robotic system (Microlab® Starlet, Hamilton) and treatment continued for 72 hrs. Compounds are applied at 9 concentrations and eight wells/concentration). At least three independent experiments are performed. For SRB staining, cells are fixed with SRB01 (Tab. 5) for 1 h at 4° C. (final concentration of TCA=10%) washed with a plate washer (Hydroflex, Tecan©) for five times with H2O; and stained with 100 μl of SRB02 at room temperature for 10 min following 4 washes in SRB03 and finally 100 μl of developer solution SRB04 for 5 minutes with shaking. Optical density is assessed using a plate-reader (Sunrise, Tecan©) at 540 nm.\nConcentrations required for half maximal response of the compound for cell growth inhibition (EC50) is calculated by non-linear regression (log[conc. of inhibitor] versus response (% T/C)) using the analysis software GraphPad Prism®, Prism 5 for windows, version 5.01 (GraphPad Software Inc., CA)."}, "[2]": {"system": "SARS-CoV-2 isolate BetaCov/Belgium/GHB-03021/2020", "assay": "microbe, parasite or virus in culture", "type": "cell-based", "details": "1.25 μM (non-toxic compound concentration), n4; for inhibition at 1.25 µM: Severe acute respiratory syndrome coronavirus 2"}, "[3]": {"assay": "Pharmacokinetics of VSP034 and VSP035 after oral administration of a liposomal formulation", "type": "in vivo, female Sprague-Dawley rats", "details": "for AUC(0-inf) / CL/F / Cmax / MRT inf / Tmax / Vd/F / half-life: female, Sprague-Dawley, rat, in vivo, po, 100 mg/kg; for AUC(0-inf): AUC0-inf; for MRT inf: MRT0-inf; for Vd/F: Vz/F", "description": "The pharmacokinetic parameters of VSP034 and VSP035 encapsulated as liposomal formulation were assessed after the administration of a single 100 mg/kg dose by oral gavage to 6 female Sprague-Dawley rats weighting 250 grams (+25 g). The animals were randomized into two experimental groups (Groups 1 and 2), each composed of 3 rats. Rats belonging to group 1 were administered with VSP034 and rats belonging to group 2 were administered with VSP035. Blood was collected at baseline and 15 min, 30 min, 1, 2, 4, 6, 8, and 24 hours after the oral gavage. The rats were sacrificed 24 hours after the dosing. Blood was collected at each timepoint from the caudal vein, with the exception of the last collection (24 hours), which was performed by intracardiac puncture at the moment of sacrifice under isoflurane anesthesia. The animals were weighted immediately before the dosing to assess the proper dose and carefully monitored during the experiment. They were kept in standard housing conditions, meeting the legal requirements for the correct housing of rodents for a period not exceeding the maximum experimental endpoints. Ad libitum access to water and food was allowed. […] Humane endpoints have not been reached. The pharmacokinetic analysis was performed using Microsoft Excel plug-in PK Solver. Pharmacokinetic parameters of two compounds are compared with the software GraphPad Prism ver. 8.0 by Student's t test for unpaired data. A p value <0.05 is considered statistically significant.\nAnalytical method: Compound analysis was performed following the bioanalytical method as in Test 13. In this study, carbamazepine was used as an internal standard.\nPharmacokinetic analysis: A pharmacokinetic analysis of VSP034 and VSP035 was performed using the Excel plug-in 2.0 PK Solver. The results have been fitted according to a non-compartmental modelling following extravascular administration. Concentration-vs-time curves for VSP034 and VSP035.\nThe main pharmacokinetic parameters (half-life, t1/2; time to maximum plasma concentration, Tmax; maximum plasma concentration, Cmax, AUC Extrapolated to Infinity, AUC0-inf; mean residence time, MRT; Apparent Volume of Distribution During Terminal Phase, Vz/F; and apparent oral clearance, CL/F) were calculated from the coefficients and exponents of the best-fits by using standard formulae."}, "[4]": {"system": "patient derived SARS-2 Coronavirus (COVID19)", "assay": "Inhibition of Sars-CoV2 replication by RNA qPCR analysis in Vero E6 cells", "type": "cell-based, SARS-CoV-2", "details": "7.5 μM, supernatants 3 days after infection, n3", "description": "Vero E6 cells were pre-incubated with the compounds at a concentration of 7.5 μM. The cells were infected with a patient derived SARS-2 Coronavirus (COVID19). Cellular supernatants were collected 3 days after infection and centrifuged at 2000 rpm for 5 min to remove detached cells. Viral RNAs were extracted using a MagNA Pure 24 system (Roche, Germany). SARS-CoV-2 RNA genomes were quantified with the TIB MOLBIOL LightMix Assay SARS-CoV-2 RdRP RTqPCR assay kit with RNA Process Control PCR Kit (Roche). The PCR reaction setup was performed using a BRAND LHS laboratory robot to ensure quality. The amplification was performed with a LightCycler 480 II (Roche). Method used in FIG. 10.\nSARV-CoV-2 antiviral activity by of VSP034 and VSP035 (n3; number of repeat of the assay at each condition). The results are shown in for DMSO (1), 7.5 μM VSP034 (2) and 7.5 μM VSP035 (3), y axis logarithmic scale. […] (FIG. 9)"}, "Plk3": {"biological_target": "Plk3 (Homo sapiens, UniProt Q9H4B4)", "sequence (Q9H4B4 whole entry, species assumed)": "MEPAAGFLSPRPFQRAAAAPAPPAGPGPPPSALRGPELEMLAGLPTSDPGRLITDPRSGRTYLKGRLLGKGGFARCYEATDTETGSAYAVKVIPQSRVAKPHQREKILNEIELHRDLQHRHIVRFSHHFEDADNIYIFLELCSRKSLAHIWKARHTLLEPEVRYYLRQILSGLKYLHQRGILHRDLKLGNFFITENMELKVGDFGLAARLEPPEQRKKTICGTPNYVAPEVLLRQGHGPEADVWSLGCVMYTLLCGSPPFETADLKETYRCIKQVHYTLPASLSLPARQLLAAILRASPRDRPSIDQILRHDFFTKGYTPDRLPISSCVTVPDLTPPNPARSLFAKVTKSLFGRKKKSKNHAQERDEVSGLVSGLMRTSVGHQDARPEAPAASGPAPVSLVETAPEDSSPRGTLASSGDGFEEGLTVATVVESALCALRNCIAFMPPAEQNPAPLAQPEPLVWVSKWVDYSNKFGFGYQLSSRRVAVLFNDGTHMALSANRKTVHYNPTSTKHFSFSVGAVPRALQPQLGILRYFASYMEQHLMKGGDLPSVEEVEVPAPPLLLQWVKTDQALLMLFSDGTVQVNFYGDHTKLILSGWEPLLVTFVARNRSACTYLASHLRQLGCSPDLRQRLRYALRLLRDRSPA", "details": "cited from earlier work"}, "[5]": {"system": "p38, JNK1, ERK1/2, PKC, or Src-like kinases", "details": "cited from earlier work"}, "[6]": {"system": "cell signaling molecules (4E-BP1, p70 S6 kinase, Akt, PTPN14, p53, PD-L1)", "assay": "Western blot of cell signaling molecules in CaSki cells", "details": "CaSki, 6 h; order 10 μM VSP035, Torin 1, Torin 2, rapamycin, 5 μM VSP035, CGP 57380"}}}
{"smiles": "CN1CCC(CN2C(=O)c3ccccc3[C@@H](C(=O)Nc3cccc(N4CCN(C)CC4)c3)[C@@H]2c2ccc(C(F)(F)F)cc2)CC1", "note": "[VSP034, (3R,4R)-N-[3-(4-methylpiperazin-1-yl)phenyl]-2-[(1-methylpiperidin-4-yl)methyl]-1-oxo-3-[4-(trifluoromethyl)phenyl]-1,2,3,4-tetrahydroisoquinoline-4-carboxamide]", "values": [{"measurement": "EC50", "setting": "[1]", "result": 3590, "unit": "nM"}, {"measurement": "inhibition at 1.25 µM", "setting": "[2]", "result": 45.2, "unit": "%"}, {"measurement": "AUC(0-inf)", "setting": "[3]; Mean", "result": 529, "unit": "ng·h/mL"}, {"measurement": "AUC(0-inf)", "setting": "[3]; Median", "result": 613, "unit": "ng·h/mL"}, {"measurement": "CL/F", "setting": "[3]; Mean", "result": 3.42, "unit": "mL/min/kg"}, {"measurement": "CL/F", "setting": "[3]; Median", "result": 2.72, "unit": "mL/min/kg"}, {"measurement": "Cmax", "setting": "[3]; Mean", "result": 89, "unit": "ng/mL"}, {"measurement": "Cmax", "setting": "[3]; Median", "result": 87.9, "unit": "ng/mL"}, {"measurement": "MRT inf", "setting": "[3]; Mean", "result": 6.72, "unit": "h"}, {"measurement": "MRT inf", "setting": "[3]; Median", "result": 6.77, "unit": "h"}, {"measurement": "Tmax", "setting": "[3]; Mean", "result": 1.17, "unit": "h"}, {"measurement": "Tmax", "setting": "[3]; Median", "result": 1, "unit": "h"}, {"measurement": "Vd/F", "setting": "[3]; Mean", "result": 1.29, "unit": "L/kg"}, {"measurement": "Vd/F", "setting": "[3]; Median", "result": 0.994, "unit": "L/kg"}, {"measurement": "half-life", "setting": "[3]; t1/2, Mean", "result": 4.33, "unit": "h"}, {"measurement": "half-life", "setting": "[3]; t1/2, Median", "result": 4.22, "unit": "h"}, {"measurement": "condition of the rats after administration of the liposomal formulation", "setting": "[3]; single 100 mg/kg oral gavage, observed 24 hours", "result": "did not show any sign of suffering or abnormal behavior"}, {"measurement": "reduction of virus load as determined by the PCR assay", "setting": "[4]", "result": "one order of magnitude"}]}
{"smiles": "COc1cc(OC)c(/C=C/S(=O)(=O)Cc2ccc(OC)c(NCC(=O)O)c2)c(OC)c1", "note": "[ON-01910.Na, reference compound]", "values": [{"measurement": "activity to Plk3", "setting": "Plk3", "result": "against Plk2 and no activity to Plk3."}, {"measurement": "inhibition at 1.25 µM", "setting": "[2]", "result": 51.4, "unit": "%"}]}
{"smiles": "Nc1ncnc2n[nH]c(Nc3ccc(F)cc3)c12", "note": "[CGP57380, reference compound]", "values": [{"measurement": "inhibitory activity against p38, JNK1, ERK1/2, PKC, or Src-like kinases", "setting": "[5]", "result": "μM, but has no inhibitory activity against"}, {"measurement": "Phosphorylation of 4E-BP1 on Ser65 and the p70S6 kinase on Thr389", "setting": "[6]", "result": "inhibited or strongly reduced"}, {"measurement": "% Inhibition", "setting": "[2]", "result": 17.71, "unit": "%"}]}
